Experimental data taken from US20130266605A1, “PEPTIDE INHIBITORS OF CD40L SIGNALING AND USES THEREFOR” (PHYLOGICA LIMITED, priority 2010, published 2013).
Like-named read-outs stand apart in the source and are kept apart here. Positions of bridges follow the written chain, without caps; N, C: chain ends. Non-standard residues stand in square brackets, D forms with d. Residues, ends and D or L forms follow the SMILES beside them. Chains are numbered I, II in the order given. No end group written: not given here. AEEA = NCCOCCOCC(=O)O

Columns and labels:
CD40L-CD40 interaction = target: T1, CD40L-CD40 interaction (Homo sapiens, UniProt P29965); assay: Chemiluminescent proximity assay (Alphascreen); format: binding; details: for inhibition of the interaction between CD40L and CD40: in words, Alphascreen proximity assay
T1 sequence (P29965 113-261 limits assumed): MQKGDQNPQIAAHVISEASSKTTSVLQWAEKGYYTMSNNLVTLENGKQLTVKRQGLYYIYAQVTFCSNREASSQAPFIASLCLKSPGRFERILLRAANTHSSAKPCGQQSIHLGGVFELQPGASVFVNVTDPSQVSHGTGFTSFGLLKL
Procedure: In one example, the Alphascreen assay (PerkinElmer) was employed according to the manufacturer's instructions.
Homodimers and heterodimers were also assayed by chemiluminescent proximity assay for their ability to inhibit CD40L-CD40 interaction.

[1] = target: CD40L-induced CD86 expression on primary B-cells (UniProt P29965); assay: Inhibition of CD40L-induced CD86 expression on primary B-cells (FACS); details: for inhibition of CD40L-induced CD86 expression on primary B-cells: in words
Procedure: In one example, the ability of a peptide, analog or derivative of the invention to inhibit or reduce or delay expression of CD86 on primary B-cells was determined in the presence and absence of the peptides, analogs and derivatives of the invention. In particular, CD86 expression was determined by FACS.
As a control in these assays, LPS-induced expression of CD86 mediated by the Toll-like receptors TLR 2/4, and TNFα-induced cytoxicity, were also assayed to exclude effects mediated by ligands other than CD40L.

CD40 ligand = target: T2, CD40 ligand (UniProt P29965 108-261, limits assumed); assay: Alphascreen, unmodified peptide, inhibition of CD40L/CD40-Fc
T2 construct: Used immobilised, soluble, or biotinylated on streptavidin beads; also called CD154; soluble CD40L
T2 sequence (looked up): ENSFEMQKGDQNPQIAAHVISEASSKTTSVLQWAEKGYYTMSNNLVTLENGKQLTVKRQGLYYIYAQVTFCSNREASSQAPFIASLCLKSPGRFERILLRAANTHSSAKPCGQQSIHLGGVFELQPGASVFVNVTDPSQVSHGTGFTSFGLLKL

[2] = PEGylated chiral (retro-inverted) analog, read-out: EC50(PEGylated) CD40L/CD40-Fc/BAF617
[3] = read-out: EC50 PEGylated peptide, PEGylated monomeric peptide

Chain of CD40L-induced CD86 expression on primary B-cells (P29965 whole entry): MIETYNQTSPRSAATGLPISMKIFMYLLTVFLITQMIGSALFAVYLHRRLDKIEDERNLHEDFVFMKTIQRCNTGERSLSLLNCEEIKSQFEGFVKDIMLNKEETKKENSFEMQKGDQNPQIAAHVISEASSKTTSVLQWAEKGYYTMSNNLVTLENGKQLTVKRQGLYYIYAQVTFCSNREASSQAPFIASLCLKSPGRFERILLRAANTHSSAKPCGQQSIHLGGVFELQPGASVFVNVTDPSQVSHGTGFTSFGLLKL
Chain of CD40L-induced CD86 expression on primary B-cells (P25942 21-277 partner): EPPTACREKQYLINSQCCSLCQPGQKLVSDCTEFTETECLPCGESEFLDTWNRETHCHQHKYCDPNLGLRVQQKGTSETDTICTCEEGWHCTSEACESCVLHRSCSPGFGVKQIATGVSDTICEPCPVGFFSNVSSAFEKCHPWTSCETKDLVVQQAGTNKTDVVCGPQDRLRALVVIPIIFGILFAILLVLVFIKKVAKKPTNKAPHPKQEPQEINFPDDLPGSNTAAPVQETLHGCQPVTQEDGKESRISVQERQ

“RVWNSFWLHIGGRQVGSPVFLSYFRNRVWRP [CD40L M1_50rd]” gave an EC50 (CD40L-CD40 interaction; [2]) of 568 nM.

`CC[C@H](C)[C@H](NC(=O)[C@H](CO)NC(=O)[C@H](Cc1ccccc1)NC(=O)[C@@H]1CCCN1C(=O)[C@@H]1CCCN1C(=O)[C@H](CO)NC(=O)[C@H](Cc1ccccc1)NC(=O)[C@H](Cc1ccccc1)NC(=O)[C@H](Cc1ccccc1)NC(=O)[C@H](CC(C)C)NC(=O)[C@H](CC(C)C)NC(=O)[C@@H](N)CC(C)C)C(=O)N[C@@H](Cc1ccccc1)C(=O)N[C@@H](CS)C(=O)N[C@@H](Cc1ccccc1)C(=O)N[C@@H](CO)C(=O)N[C@@H](CC(C)C)C(=O)N[C@H](C(=O)N[C@H](C(=O)N[C@@H](CC(C)C)C(=O)N[C@@H](CO)C(=O)O)[C@@H](C)O)[C@@H](C)O` [CD40L M7_189] (H-LLLFFFSPPFSIFCFSLTTLS-OH) was tested, and the EC50 (CD40L-CD40 interaction; monomeric non-PEGylated (unmodified) base peptide; 50% reduction in control emission at 520-620 nm; read-out: EC50nmodified) CD40L/CD40-Fc/BAF617) was 120 nM.

For “I: H-C[AEEA]PPRYNLFFLFRFYSSFRRDYLYF / II: H-C[AEEA]HPFSIKNVFSIWNFFSVY (disulfide I:1-II:1) [Cys_M1_6S-Cys_M1_9S heterodimer]”, the “inhibition of CD40L-induced CD86 expression on primary B-cells” value (from here on “inhibition … on primary B-cells”) [1] was “enhanced inhibition”, the “inhibition of the interaction between CD40L and CD40” value (CD40L-CD40 interaction; listed as 6-9 dimer) was “enhanced inhibition” and the “inhibition of the interaction between CD40L and CD40” value (CD40L-CD40 interaction; listed as 6-9 high purity dimer) was “inhibition”.

With AQWWHHRFSFLGAIQFFERGAAD [CD40L M1_30rd] the EC50 (CD40L-CD40 interaction; [2]) was 24 nM.

In the case of `CC[C@H](C)[C@H](NC(=O)[C@H](CO)NC(=O)[C@H](Cc1ccccc1)NC(=O)[C@@H](NC(=O)[C@H](CC(N)=O)NC(=O)[C@H](CCCCN)NC(=O)[C@@H](NC(=O)[C@H](CO)NC(=O)[C@H](Cc1ccccc1)NC(=O)[C@@H]1CCCN1C(=O)[C@H](Cc1c[nH]cn1)NC(=O)COCCOCCNC(=O)[C@@H](N)CSSC[C@H](N)C(=O)NCCOCCOCC(=O)N[C@@H](Cc1c[nH]cn1)C(=O)N1CCC[C@H]1C(=O)N[C@@H](Cc1ccccc1)C(=O)N[C@@H](CO)C(=O)N[C@H](C(=O)N[C@@H](CCCCN)C(=O)N[C@@H](CC(N)=O)C(=O)N[C@H](C(=O)N[C@@H](Cc1ccccc1)C(=O)N[C@@H](CO)C(=O)N[C@H](C(=O)N[C@@H](Cc1c[nH]c2ccccc12)C(=O)N[C@@H](CC(N)=O)C(=O)N[C@@H](Cc1ccccc1)C(=O)N[C@@H](Cc1ccccc1)C(=O)N[C@@H](CO)C(=O)N[C@H](C(=O)N[C@@H](Cc1ccc(O)cc1)C(=O)O)C(C)C)[C@@H](C)CC)C(C)C)[C@@H](C)CC)[C@@H](C)CC)C(C)C)C(=O)N[C@@H](Cc1c[nH]c2ccccc12)C(=O)N[C@@H](CC(N)=O)C(=O)N[C@@H](Cc1ccccc1)C(=O)N[C@@H](Cc1ccccc1)C(=O)N[C@@H](CO)C(=O)N[C@H](C(=O)N[C@@H](Cc1ccc(O)cc1)C(=O)O)C(C)C` [Cys_M1_6S homodimer] (I: H-C[AEEA]HPFSIKNVFSIWNFFSVY-OH / II: H-C[AEEA]HPFSIKNVFSIWNFFSVY-OH; disulfide I:1-II:1; C-terminus assumed), the “inhibition … on primary B-cells” value [1] is reported as “enhanced inhibition”, the “inhibition of the interaction between CD40L and CD40” value (CD40L-CD40 interaction; listed as 6-6 dimer) is reported as “enhanced inhibition” and the “inhibition of the interaction between CD40L and CD40” value (CD40L-CD40 interaction; listed as homodimer of the Phylomer peptide M1—6) is reported as “inhibition”.

With “I: H-C[AEEA]LLLFFFSPPFSIFSFSLTTLS / II: H-C[AEEA]HPFSIKNVFSIWNFFSVY (disulfide I:1-II:1) [Cys_M1_6S-Cys_M1_189S heterodimer]” the “inhibition … on primary B-cells” value [1] was “enhanced inhibition”, the “inhibition of the interaction between CD40L and CD40” value (CD40L-CD40 interaction; listed as 6-189 dimer) was “enhanced inhibition” and the “inhibition of the interaction between CD40L and CD40” value (CD40L-CD40 interaction; listed as 6-189 high purity dimer) was “inhibition”.

For SKVRMQFDIINFPVNVGFLVFSH [CD40L M1_42rd], the EC50 (CD40L-CD40 interaction; [2]) was 16 nM.

`CC[C@H](C)[C@H](NC(=O)[C@H](CO)NC(=O)[C@H](Cc1c[nH]c2ccccc12)NC(=O)[C@H](CCC(N)=O)NC(=O)[C@@H](NC(=O)[C@@H]1CCCN1C(=O)[C@H](Cc1ccccc1)NC(=O)[C@H](Cc1ccccc1)NC(=O)[C@H](Cc1c[nH]c2ccccc12)NC(=O)CNC(=O)[C@H](Cc1ccc(O)cc1)NC(=O)[C@H](CCCCN)NC(=O)[C@H](CC(C)C)NC(=O)[C@@H](NC(=O)[C@H](Cc1c[nH]cn1)NC(=O)[C@H](CO)NC(=O)[C@H](CCCNC(=N)N)NC(=O)[C@H](Cc1ccc(O)cc1)NC(=O)[C@@H]1CCCN1C(=O)[C@@H](NC(=O)[C@H](Cc1ccccc1)NC(=O)[C@@H]1CCCN1C(=O)[C@@H](N)CC(C)C)C(C)C)C(C)C)C(C)C)C(=O)N[C@@H](Cc1ccccc1)C(=O)N[C@@H](C)C(=O)N[C@H](C(=O)N[C@@H](CC(C)C)C(=O)N1CCC[C@H]1C(=O)N[C@@H](Cc1ccccc1)C(=O)N[C@@H](CCC(N)=O)C(=O)N[C@@H](Cc1ccc(O)cc1)C(=O)N[C@@H](CC(C)C)C(=O)N[C@@H](Cc1c[nH]cn1)C(=O)N[C@@H](CCCNC(=N)N)C(=O)N[C@@H](CS)C(=O)N[C@@H](CCCNC(=N)N)C(=O)O)C(C)C` [CD40L M1_18] (H-LPFVPYRSHVLKYGWFFPVQWSIFAVLPFQYLHRCR-OH; N-terminus and C-terminus assumed) was tested, and the “inhibition … on primary B-cells” value [1] was “concentration-dependent inhibition”.

With FYLYDRRFSSYFRFLFFLNYRPP [CD40L M1_9rd] the EC50 (CD40L-CD40 interaction; [2]) was 14 nM.

In the case of `CC[C@H](C)[C@H](NC(=O)[C@H](CS)NC(=O)[C@H](Cc1ccccc1)NC(=O)[C@@H](NC(=O)[C@H](CC(N)=O)NC(=O)[C@H](CCCCN)NC(=O)[C@@H](NC(=O)[C@H](CO)NC(=O)[C@H](Cc1ccccc1)NC(=O)[C@@H]1CCCN1C(=O)[C@@H](N)Cc1c[nH]cn1)[C@@H](C)CC)C(C)C)C(=O)N[C@@H](Cc1c[nH]c2ccccc12)C(=O)N[C@@H](CC(N)=O)C(=O)N[C@@H](Cc1ccccc1)C(=O)N[C@@H](Cc1ccccc1)C(=O)N[C@@H](CO)C(=O)N[C@H](C(=O)N[C@@H](Cc1ccc(O)cc1)C(=O)O)C(C)C` [CD40L M1_6] (H-HPFSIKNVFCIWNFFSVY-OH; N-terminus and C-terminus assumed), the “inhibition of the interaction between CD40L and CD40” value (CD40L-CD40 interaction) is reported as “inhibition”.

YVSFFNWISFVNKISFPH [CD40L M1_6rd] gave an EC50 (CD40L-CD40 interaction; [2]) of 20 nM.

`CC[C@@H](C)[C@@H](NC(=O)[C@@H](Cc1ccccc1)NC(=O)[C@@H](C)NC(=O)[C@H](NC(=O)[C@@H](CC(C)C)NC(=O)[C@H]1CCCN1C(=O)[C@@H](Cc1ccccc1)NC(=O)[C@@H](CCC(N)=O)NC(=O)[C@@H](Cc1ccc(O)cc1)NC(=O)[C@@H](CC(C)C)NC(=O)[C@@H](Cc1c[nH]cn1)NC(=O)[C@@H](CCCNC(=N)N)NC(=O)[C@@H](CS)NC(=O)[C@H](N)CCCNC(=N)N)C(C)C)C(=O)N[C@H](CO)C(=O)N[C@H](Cc1c[nH]c2ccccc12)C(=O)N[C@H](CCC(N)=O)C(=O)N[C@@H](C(=O)N1CCC[C@@H]1C(=O)N[C@H](Cc1ccccc1)C(=O)N[C@H](Cc1ccccc1)C(=O)N[C@H](Cc1c[nH]c2ccccc12)C(=O)NCC(=O)N[C@H](Cc1ccc(O)cc1)C(=O)N[C@H](CCCCN)C(=O)N[C@H](CC(C)C)C(=O)N[C@@H](C(=O)N[C@H](Cc1c[nH]cn1)C(=O)N[C@H](CO)C(=O)N[C@H](CCCNC(=N)N)C(=O)N[C@H](Cc1ccc(O)cc1)C(=O)N1CCC[C@@H]1C(=O)N[C@@H](C(=O)N[C@H](Cc1ccccc1)C(=O)N1CCC[C@@H]1C(=O)N[C@H](CC(C)C)C(=O)O)C(C)C)C(C)C)C(C)C` [CD40L M1_18rd] (H-[dR][dC][dR][dH][dL][dY][dQ][dF][dP][dL][dV][dA][dF][dI][dS][dW][dQ][dV][dP][dF][dF][dW]G[dY][dK][dL][dV][dH][dS][dR][dY][dP][dV][dF][dP][dL]-OH; N-terminus and C-terminus assumed) was tested, and the “inhibition … on primary B-cells” value [1] was “enhanced inhibition”.

“VHSYYVWILQFYYKFRSYRWHYQIS [CD40L M1_82rd]” showed an EC50 [1, 3] of 470 nM and an EC50 (CD40L-CD40 interaction; [2]) of 10 nM.

For FHRMYVILQIIWFITPRWTFP [CD40L M7_206rd], the EC50 [1, 3] was 2000 nM and the EC50 (CD40L-CD40 interaction; [2]) was 12 nM.

B1: CD40L: CD40 ligand used to induce CD86 expression on primary B-cells (protein)
chain: T2 sequence (looked up)
Work on B1 yielded an EC50 ([1]; read-out: EC50 value of CD40L induction of CD86 expression, absence of a peptidyl inhibitor) of roughly 9 nM.

For HSFVLFGVNVPFNIIDFQMRVKC (Base peptide) [CD40L M1_42], the EC50 (CD40 ligand) was 200 nM.

LLYVKVICFFCMLVQYNNFQTYK (Base peptide) [CD40L M2_159] was tested, and the EC50 (CD40 ligand) was 120 nM.
